# Reference: patent US5834259A, “Process and composition for preparing D-aspartic acid” (Monsanto Company, priority 1996, dated 1998)
# Experiments:
# [1] = molecular target: T1, L-aspartate-α-decarboxylase (Escherichia coli, UniProt P0A790); experiment: Temperature study, 37° C. (Example 9); type: biochemical, E. coli K12; conditions: for concentration in supernatant fluid / percent remaining: 1.0M, 100 g/l cells
# T1 construct: expressed in transfected cells; host or cells: E. coli W3110 transformed with pIF309 = strain NS3291 (ATCC 98675), whole cells
# T1 sequence (P0A790 25-126): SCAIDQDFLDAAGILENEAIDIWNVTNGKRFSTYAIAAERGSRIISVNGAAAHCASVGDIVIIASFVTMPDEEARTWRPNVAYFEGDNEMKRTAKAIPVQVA
# T1 sequence (P0A790 1-24): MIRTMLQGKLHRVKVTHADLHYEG
# Experimental: (§1) 133.1 g (1 mol) of D/L-aspartic acid was dissolved in deionized H2 O and the pH was adjusted to 7.0 with 10N NaOH, approximately 100 ml. Cells, freshly thawed from -80° C., were added to achieve a final concentration of 100 g/l. Three 2 L fermentors were each charged with 963 ml of substrate solution and 137 ml of cells and then heated to 37° C. and 45° C. while mixing at 300 rpm or heated to 50° C. while mixing at 450 rpm. Samples, approximately 1 ml, were removed over time and pH adjusted to 7.0 with either NaOH or HCl. After centrifugation to remove cells, the supernatant fluid was analyzed for both D- and L-aspartic acid.
# [2] = molecular target: T1, L-aspartate-α-decarboxylase; experiment: Temperature study, 50° C. (Example 9); type: biochemical, E. coli K12; conditions: for concentration in supernatant fluid / percent remaining: 1.0M, 100 g/l cells
# Experimental: as §1
compound,measurement,setting,value
"N[C@H](CC(=O)O)C(=O)O [D-Asp, D-aspartic acid]",stability of the isomer,[1],stable
same,concentration in supernatant fluid,[1]; 0.0000 hr,55.000 mg/mL
same,concentration in supernatant fluid,[1]; 2.5000 hr,54.310 mg/mL
same,percent remaining,[1]; 2.5000 hr,98.745%
same,concentration in supernatant fluid,[1]; 4.0000 hr,54.440 mg/mL
same,percent remaining,[1]; 4.0000 hr,98.982%
same,concentration in supernatant fluid,[1]; 6.0000 hr,54.470 mg/mL
same,percent remaining,[1]; 6.0000 hr,99.036%
same,concentration in supernatant fluid,[1]; 8.0000 hr,54.760 mg/mL
same,percent remaining,[1]; 8.0000 hr,99.564%
same,concentration in supernatant fluid,[1]; 10.000 hr,55.840 mg/mL
same,percent remaining,[1]; 10.000 hr,101.53%
same,concentration in supernatant fluid,[1]; 12.000 hr,56.760 mg/mL
same,percent remaining,[1]; 12.000 hr,103.20%
same,concentration in supernatant fluid,[1]; 20.000 hr,55.460 mg/mL
same,percent remaining,[1]; 20.000 hr,100.84%
same,concentration in supernatant fluid,[1]; 24.000 hr,55.390 mg/mL
same,percent remaining,[1]; 24.000 hr,100.71%
same,concentration in supernatant fluid,[1]; 29.000 hr,53.990 mg/mL
same,percent remaining,[1]; 29.000 hr,98.164%
same,concentration in supernatant fluid,[1]; 34.000 hr,53.440 mg/mL
same,percent remaining,[1]; 34.000 hr,97.164%
same,concentration in supernatant fluid,[1]; 44.000 hr,52.960 mg/mL
same,percent remaining,[1]; 44.000 hr,96.291%
same,concentration in supernatant fluid,[1]; 48.000 hr,52.940 mg/mL
same,percent remaining,[1]; 48.000 hr,96.255%
same,concentration in supernatant fluid,[1]; 68.000 hr,49.940 mg/mL
same,percent remaining,[1]; 68.000 hr,90.800%
same,concentration in supernatant fluid,[1]; 92.000 hr,50.670 mg/mL
same,percent remaining,[1]; 92.000 hr,92.127%
same,stability of the isomer,[2],stable
same,concentration in supernatant fluid,[2]; 0.000 hr,54.89 mg/mL
same,concentration in supernatant fluid,[2]; 1.000 hr,54.30 mg/mL
same,percent remaining,[2]; 1.000 hr,52.78%
same,concentration in supernatant fluid,[2]; 3.000 hr,58.01 mg/mL
same,percent remaining,[2]; 3.000 hr,40.61%
same,concentration in supernatant fluid,[2]; 5.0000 hr,58.16 mg/mL
same,percent remaining,[2]; 5.0000 hr,36.97%
same,concentration in supernatant fluid,[2]; 7.000 hr,58.51 mg/mL
same,percent remaining,[2]; 7.000 hr,35.69%
same,concentration in supernatant fluid,[2]; 9.000 hr,58.88 mg/mL
same,percent remaining,[2]; 9.000 hr,33.99%
same,concentration in supernatant fluid,[2]; 13.50 hr,59.62 mg/mL
same,percent remaining,[2]; 13.50 hr,34.19%
same,concentration in supernatant fluid,[2]; 23.00 hr,56.71 mg/mL
same,percent remaining,[2]; 23.00 hr,31.98%
same,concentration in supernatant fluid,[2]; 25.00 hr,59.85 mg/mL
same,percent remaining,[2]; 25.00 hr,31.86%
same,concentration in supernatant fluid,[2]; 27.00 hr,56.87 mg/mL
same,percent remaining,[2]; 27.00 hr,26.89%
same,concentration in supernatant fluid,[2]; 32.00 hr,57.30 mg/mL
same,percent remaining,[2]; 32.00 hr,25.85%
same,concentration in supernatant fluid,[2]; 37.50 hr,58.48 mg/mL
same,percent remaining,[2]; 37.50 hr,27.54%
same,concentration in supernatant fluid,[2]; 47.00 hr,57.93 mg/mL
same,percent remaining,[2]; 47.00 hr,25.58%
same,concentration in supernatant fluid,[2]; 52.00 hr,58.74 mg/mL
same,percent remaining,[2]; 52.00 hr,27.28%
same,concentration in supernatant fluid,[2]; 57.00 hr,65.56 mg/mL
same,percent remaining,[2]; 57.00 hr,32.42%
same,concentration in supernatant fluid,[2]; 71.00 hr,57.17 mg/mL
same,percent remaining,[2]; 71.00 hr,25.52%
same,concentration in supernatant fluid,[2]; 77.00 hr,57.85 mg/mL
same,percent remaining,[2]; 77.00 hr,25.86%
same,concentration in supernatant fluid,[2]; 81.00 hr,57.41 mg/mL
same,percent remaining,[2]; 81.00 hr,25.54%
same,concentration in supernatant fluid,[2]; 99.75 hr,59.36 mg/mL
same,percent remaining,[2]; 99.75 hr,26.14%
"N[C@@H](CC(=O)O)C(=O)O [L-Asp, L-aspartic acid]",concentration in supernatant fluid,[1]; 0.0000 hr,53.700 mg/mL
same,concentration in supernatant fluid,[1]; 2.5000 hr,48.940 mg/mL
same,percent remaining,[1]; 2.5000 hr,91.136%
same,concentration in supernatant fluid,[1]; 4.0000 hr,47.600 mg/mL
same,percent remaining,[1]; 4.0000 hr,88.641%
same,concentration in supernatant fluid,[1]; 6.0000 hr,46.170 mg/mL
same,percent remaining,[1]; 6.0000 hr,85.978%
same,concentration in supernatant fluid,[1]; 8.0000 hr,44.810 mg/mL
same,percent remaining,[1]; 8.0000 hr,83.445%
same,concentration in supernatant fluid,[1]; 10.000 hr,42.120 mg/mL
same,percent remaining,[1]; 10.000 hr,78.436%
same,concentration in supernatant fluid,[1]; 12.000 hr,42.120 mg/mL
same,percent remaining,[1]; 12.000 hr,78.462%
same,concentration in supernatant fluid,[1]; 20.000 hr,35.960 mg/mL
same,percent remaining,[1]; 20.000 hr,66.965%
same,concentration in supernatant fluid,[1]; 24.000 hr,34.840 mg/mL
same,percent remaining,[1]; 24.000 hr,64.879%
same,concentration in supernatant fluid,[1]; 29.000 hr,28.040 mg/mL
same,percent remaining,[1]; 29.000 hr,54.078%
same,concentration in supernatant fluid,[1]; 34.000 hr,28.040 mg/mL
same,percent remaining,[1]; 34.000 hr,54.078%
same,concentration in supernatant fluid,[1]; 44.000 hr,21.670 mg/mL
same,percent remaining,[1]; 44.000 hr,40.354%
same,concentration in supernatant fluid,[1]; 48.000 hr,18.440 mg/mL
same,percent remaining,[1]; 48.000 hr,34.339%
same,concentration in supernatant fluid,[1]; 68.000 hr,5.9700 mg/mL
same,percent remaining,[1]; 68.000 hr,11.117%
same,concentration in supernatant fluid,[1]; 92.000 hr,0.915 mg/mL
same,percent remaining,[1]; 92.000 hr,1.7039%
same,consumption of the isomer,[1]; by 99.75 hours,almost completely consumed
same,concentration in supernatant fluid,[2]; 0.000 hr,100.0 mg/mL
same,concentration in supernatant fluid,[2]; 1.000 hr,98.93 mg/mL
same,percent remaining,[2]; 1.000 hr,108.9%
same,concentration in supernatant fluid,[2]; 3.000 hr,105.7 mg/mL
same,percent remaining,[2]; 3.000 hr,83.78%
same,concentration in supernatant fluid,[2]; 5.0000 hr,106.0 mg/mL
same,percent remaining,[2]; 5.0000 hr,73.63%
same,concentration in supernatant fluid,[2]; 7.000 hr,106.6 mg/mL
same,percent remaining,[2]; 7.000 hr,73.63%
same,concentration in supernatant fluid,[2]; 9.000 hr,107.3 mg/mL
same,percent remaining,[2]; 9.000 hr,70.13%
same,concentration in supernatant fluid,[2]; 13.50 hr,108.4 mg/mL
same,percent remaining,[2]; 13.50 hr,70.54%
same,concentration in supernatant fluid,[2]; 23.00 hr,103.3 mg/mL
same,percent remaining,[2]; 23.00 hr,65.98%
same,concentration in supernatant fluid,[2]; 25.00 hr,109.0 mg/mL
same,percent remaining,[2]; 25.00 hr,65.73%
same,concentration in supernatant fluid,[2]; 27.00 hr,103.6 mg/mL
same,percent remaining,[2]; 27.00 hr,55.48%
same,concentration in supernatant fluid,[2]; 32.00 hr,104.4 mg/mL
same,percent remaining,[2]; 32.00 hr,53.33%
same,concentration in supernatant fluid,[2]; 37.50 hr,106.5 mg/mL
same,percent remaining,[2]; 37.50 hr,58.82%
same,percent remaining,[2]; 47.00 hr,52.77%
same,concentration in supernatant fluid,[2]; 52.00 hr,107.0 mg/mL
same,percent remaining,[2]; 52.00 hr,56.28%
same,concentration in supernatant fluid,[2]; 57.00 hr,119.4 mg/mL
same,percent remaining,[2]; 57.00 hr,66.89%
same,concentration in supernatant fluid,[2]; 71.00 hr,104.2 mg/mL
same,percent remaining,[2]; 71.00 hr,52.65%
same,concentration in supernatant fluid,[2]; 77.00 hr,105.4 mg/mL
same,percent remaining,[2]; 77.00 hr,53.35%
same,concentration in supernatant fluid,[2]; 81.00 hr,104.6 mg/mL
same,percent remaining,[2]; 81.00 hr,52.69%
same,concentration in supernatant fluid,[2]; 99.75 hr,108.1 mg/mL
same,percent remaining,[2]; 99.75 hr,53.93%
